Data reported in US7312205B2, “Methods and compositions for inhibiting tumor growth” (Novelix Pharmaceuticals, Inc., priority 2003, dated 2007).

Assays:
[1] = test system: liposarcoma line (ATCC HTB-92); experiment: Growth inhibition in liposarcoma line ATCC HTB-92 (cell survival vs untreated controls); format: cell-based
From the text: (§1) Examples 1 and 2 show direct comparisons between comparative compound A (betulic acid) and a novel derivative (compound B) in paired growth assays (cell count decrease after 3 days after a single application of the indicated concentrations of the respective compounds on day 1).
Comparison of the efficacy of comparative compound (A) (betulic acid) with that of compound (B) (protected betulic acid trisester) in a liposarcoma line (ATCC HTB-92). The X-axis indicates the concentration in μg/ml of compounds A and B, respectively, the Y-axis gives the cell survival rate in percent of the untreated controls. […]

melanoma cell line 518A2 = experiment: Growth inhibition in melanoma cell line 518A2 (cell survival vs untreated controls); format: cell-based
From the text: as §1
Comparison of compound (A) (betulic acid) with compound (B) (protected betulic acid trisester)—Growth inhibition in melanoma cell line 518A2 (obtained from Peter Schrier, Leiden, The Netherlands) […]. The X-axis indicates the concentration in μg/ml of compounds A and B, respectively, the Y-axis gives the cell survival rate in percent of the untreated controls.
Comparison of the effects of different betulic acid derivatives according to the invention and of the comparative compound (betulic acid), respectively, on various melanoma-sarcoma lines. The data each refer to cell survival rates in percent (mean values) as against untreated cell cultures.
Survival in percent as with all other data after 3 days of cell culture after a single application on day 1

[2] = liposarcoma ATCC HTB-92, 0.3 μg/ml
[3] = liposarcoma ATCC HTB-92, 0.6 μg/ml
[4] = liposarcoma ATCC HTB-92, 1 μg/ml
[5] = liposarcoma ATCC HTB-92, 1.25 μg/ml
[6] = liposarcoma ATCC HTB-92, 2.5 μg/ml
[7] = liposarcoma ATCC HTB-92, 5 μg/ml
[8] = liposarcoma ATCC HTB-92, 10 μg/ml

## C=C(C)[C@@H]1CC[C@]2(C(=O)O)CC[C@]3(C)[C@H](CC[C@@H]4[C@@]5(C)CC[C@H](O)C(C)(C)[C@@H]5CC[C@]43C)[C@@H]12 [A, betulic acid, reference compound]
[1]; [2]
  survival in %: 98.0%
[1]; [3]
  survival in %: 92.8%
[1]; [4]
  survival in %: 92.3%
[1]; [5]
  survival in %: 79.5%
[1]; [6]
  survival in %: 49.3%
[1]; [7]
  survival in %: 20.8%
[1]; [8]
  survival in %: 15.7%

## C=C(C)[C@@H]1CC[C@]2(C(=O)OCC(N)(CO)CO)CC[C@]3(C)[C@H](CC[C@@H]4[C@@]5(C)CC[C@H](OC(C)=O)C(C)(C)[C@@H]5CC[C@]43C)[C@@H]12 [Compound B, Acetyl betulic acid-2-amino-3-hydroxy-2-hydroxymethyl propyl ester]
Melanoma cell line 518A2; Test #1: stock 50 mg/ml in EtOH, 1.0 μg/ml, 3 days
  Survival in % melanoma: 50%
Melanoma cell line 518A2; Test #1: stock 50 mg/ml in EtOH, 2.0 μg/ml, 3 days
  Survival in % melanoma: 0.5%
Melanoma cell line 518A2; Test #1: stock 50 mg/ml in EtOH, 3.0 μg/ml, 3 days
  Survival in % melanoma: 0.0%
Melanoma cell line 518A2; Test #1: stock 50 mg/ml in EtOH, 4.0 μg/ml, 3 days
  Survival in % melanoma: 0.0%
Melanoma cell line 518A2; Test #2: inclusion compound, 5.9 mg/ml in 266 mg/ml HBC in H2O, 1.0 μg/ml, 3 days
  Survival in % melanoma: 65%
Melanoma cell line 518A2; Test #2: inclusion compound, 5.9 mg/ml in 266 mg/ml HBC in H2O, 2.0 μg/ml, 3 days
  Survival in % melanoma: 25%
Melanoma cell line 518A2; Test #2: inclusion compound, 5.9 mg/ml in 266 mg/ml HBC in H2O, 3.0 μg/ml, 3 days
  Survival in % melanoma: 0.0%
Melanoma cell line 518A2; Test #2: inclusion compound, 5.9 mg/ml in 266 mg/ml HBC in H2O, 4.0 μg/ml, 3 days
  Survival in % melanoma: 0.0%
Melanoma cell line 518A2; Test #3: inclusion compound, 20 mg/ml in 266 mg/ml HBC in 50% EtOH/50% H2O, 1.0 μg/ml, 3 days
  Survival in % melanoma: 77%
Melanoma cell line 518A2; Test #3: inclusion compound, 20 mg/ml in 266 mg/ml HBC in 50% EtOH/50% H2O, 2.0 μg/ml, 3 days
  Survival in % melanoma: 24%
Melanoma cell line 518A2; Test #3: inclusion compound, 20 mg/ml in 266 mg/ml HBC in 50% EtOH/50% H2O, 3.0 μg/ml, 3 days
  Survival in % melanoma: 0.0%
Melanoma cell line 518A2; Test #3: inclusion compound, 20 mg/ml in 266 mg/ml HBC in 50% EtOH/50% H2O, 4.0 μg/ml, 3 days
  Survival in % melanoma: 0.0%
Melanoma cell line 518A2; Test #4: inclusion compound, 25 mg/ml in 200 mg/ml HGC in 50% EtOH/50% H2O, 1.0 μg/ml, 3 days
  Survival in % melanoma: 59%
Melanoma cell line 518A2; Test #4: inclusion compound, 25 mg/ml in 200 mg/ml HGC in 50% EtOH/50% H2O, 2.0 μg/ml, 3 days
  Survival in % melanoma: 4%
Melanoma cell line 518A2; Test #4: inclusion compound, 25 mg/ml in 200 mg/ml HGC in 50% EtOH/50% H2O, 3.0 μg/ml, 3 days
  Survival in % melanoma: 0.0%
Melanoma cell line 518A2; melanoma 518A2, 0.3 μg/ml
  survival in %: 83.0%
Melanoma cell line 518A2; melanoma 518A2, 0.6 μg/ml
  survival in %: 56.3%
Melanoma cell line 518A2; melanoma 518A2, 1 μg/ml
  survival in %: 11.3%
Melanoma cell line 518A2; melanoma 518A2, 1.25 μg/ml
  survival in %: 10.3%
Melanoma cell line 518A2; melanoma 518A2, 2.5 μg/ml
  survival in %: 2.8%
Melanoma cell line 518A2; melanoma 518A2, 5 μg/ml
  survival in %: 0.0%
Melanoma cell line 518A2; melanoma 518A2, 10 μg/ml
  survival in %: 0.0%
Melanoma cell line 518A2; melanoma cell line 518A2, from ED50
  activity relative to comparative compound (A): up to 7 times
[1]; [2]
  survival in %: 89.5%
[1]; [3]
  survival in %: 70.7%
[1]; [4]
  survival in %: 12.0%
[1]; [5]
  survival in %: 2.9%
[1]; [6]
  survival in %: 3.0%
[1]; [7]
  survival in %: 0.0%
[1]; [8]
  survival in %: 0.0%

## C=C(C)[C@@H]1CC[C@]2(C(=O)NC(CO)(CO)CO)CC[C@]3(C)[C@H](CC[C@@H]4[C@@]5(C)CC[C@H](OC(C)=O)C(C)(C)[C@@H]5CC[C@]43C)[C@@H]12 [Compound C, Acetyl betulic acid-N-(1,1-bis(hydroxymethyl)-2-hydroxyethyl)formamide]
Melanoma cell line 518A2; melanoma 518A2, 0.25 μg/ml
  Survival in % melanoma: 96%
Melanoma cell line 518A2; melanoma 518A2, 0.5 μg/ml
  Survival in % melanoma: 93%
Melanoma cell line 518A2; melanoma 518A2, 1 μg/ml
  survival in %: 67.5%
[1]; [2]
  survival in %: 96%
[1]; [3]
  survival in %: 82%
[1]; [4]
  survival in %: 81%
